Experimental data: ChEMBL document CHEMBL1128783, “N-Methyl and N-cyclopropylmethyl-14,14-[dithiobis[(2-oxo-2,1-ethanediyl)imino]]bis(7,8-dihydro-5-methyl-morphinone) MET-TAMO and N-CPM-MET-TAMO: Synthesis and opioid binding properties” (Bioorg Med Chem Lett, 1995)

What was measured:
[1] = Inhibitory activity against Opioid receptor kappa1 binding to bovine striatal membrane
[2] = Inhibitory activity against Opioid receptor delta 1 binding to bovine striatal membrane
[3] = target: T1, Mu-type opioid receptor (Bos taurus, UniProt P79350); assay: Inhibitory activity against Opioid receptor mu 1 binding to bovine striatal membrane; parameters: species or system Striatum
T1 sequence (P79350 whole entry): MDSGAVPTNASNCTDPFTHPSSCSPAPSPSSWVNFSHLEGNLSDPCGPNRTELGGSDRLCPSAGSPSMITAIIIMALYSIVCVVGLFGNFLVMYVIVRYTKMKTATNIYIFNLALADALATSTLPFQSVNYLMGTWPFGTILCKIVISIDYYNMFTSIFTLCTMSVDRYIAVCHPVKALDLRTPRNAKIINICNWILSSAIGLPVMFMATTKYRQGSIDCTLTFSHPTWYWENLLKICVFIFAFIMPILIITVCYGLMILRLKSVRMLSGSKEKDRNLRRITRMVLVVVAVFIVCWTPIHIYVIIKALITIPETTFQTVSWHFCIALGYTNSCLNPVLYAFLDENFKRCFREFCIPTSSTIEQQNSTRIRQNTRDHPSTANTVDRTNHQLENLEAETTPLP

[4] = target: T1, Mu-type opioid receptor; assay: Binding affinity towards Opioid receptor mu 1 using [3H]DAMGO expressed as Kd
[5] = target: Mu-type opioid receptor (Bos taurus) (UniProt P79350); assay: Effect at dose 40 nM on wash-resistant inhibition of [3H]DAMGO binding to TPCK-treated membranes; parameters: scale not given: the % may be the effect or the level left
Chain of Mu-type opioid receptor (Bos taurus) (P79350 whole entry): as above

Row | Control [5] [%] | Structure (SMILES) | IC50 [1] [nM] | IC50 [2] [nM] | IC50 [3] [nM] | Kd [4] [nM]
1 |  | O=C(CSSCC(=O)N[C@@]12CCC(=O)[C@@H]3Oc4c(O)ccc5c4[C@@]31CCN(CC1CC1)[C@@H]2C5)N[C@@]12CCC(=O)[C@@H]3Oc4c(O)ccc5c4[C@@]31CCN(CC1CC1)[C@@H]2C5 | 10 | 24 | 3.9 | 
2 |  | C[C@@]12Oc3c(O)ccc4c3[C@@]13CCN(CC1CC1)[C@H](C4)[C@]3(NC(=O)CSSCC(=O)N[C@@]13CCC(=O)[C@]4(C)Oc5c(O)ccc6c5[C@@]41CCN(CC1CC1)[C@@H]3C6)CCC2=O |  |  | 1.4 | 0.4
3 |  | CN1CC[C@]23c4c5ccc(O)c4O[C@@]2(C)C(=O)CC[C@@]3(NC(=O)CSSCC(=O)N[C@@]23CCC(=O)[C@]4(C)Oc6c(O)ccc7c6[C@@]42CCN(C)C3C7)C1C5 |  |  | 2.9 | 
4 | 107 | OC(CS)C(O)CS (centres undefined) |  |  |  | 
5 |  | CN1CC[C@]23c4c5ccc(O)c4O[C@H]2C(=O)CC[C@@]3(NC(=O)CSSCC(=O)N[C@@]23CCC(=O)[C@@H]4Oc6c(O)ccc7c6[C@@]42CCN(C)[C@@H]3C7)[C@H]1C5 | 41 | 11 |  | 
